Tests used:
Mus musculus [1] = experiment: Induction of innate immune response in C57BL/6 mouse assessed as IP-10 Tmax at 5 mg/kg, po; type: functional, organism-based
[2] = target: T1, Toll-like receptor 8 (Homo sapiens) (UniProt Q9NR97); experiment: Agonist activity at human TLR8 expressed in HEK293 cells after 6 hrs by NFkappaB-luciferase reporter gene assay; type: cell-based
T1 sequence (whole entry): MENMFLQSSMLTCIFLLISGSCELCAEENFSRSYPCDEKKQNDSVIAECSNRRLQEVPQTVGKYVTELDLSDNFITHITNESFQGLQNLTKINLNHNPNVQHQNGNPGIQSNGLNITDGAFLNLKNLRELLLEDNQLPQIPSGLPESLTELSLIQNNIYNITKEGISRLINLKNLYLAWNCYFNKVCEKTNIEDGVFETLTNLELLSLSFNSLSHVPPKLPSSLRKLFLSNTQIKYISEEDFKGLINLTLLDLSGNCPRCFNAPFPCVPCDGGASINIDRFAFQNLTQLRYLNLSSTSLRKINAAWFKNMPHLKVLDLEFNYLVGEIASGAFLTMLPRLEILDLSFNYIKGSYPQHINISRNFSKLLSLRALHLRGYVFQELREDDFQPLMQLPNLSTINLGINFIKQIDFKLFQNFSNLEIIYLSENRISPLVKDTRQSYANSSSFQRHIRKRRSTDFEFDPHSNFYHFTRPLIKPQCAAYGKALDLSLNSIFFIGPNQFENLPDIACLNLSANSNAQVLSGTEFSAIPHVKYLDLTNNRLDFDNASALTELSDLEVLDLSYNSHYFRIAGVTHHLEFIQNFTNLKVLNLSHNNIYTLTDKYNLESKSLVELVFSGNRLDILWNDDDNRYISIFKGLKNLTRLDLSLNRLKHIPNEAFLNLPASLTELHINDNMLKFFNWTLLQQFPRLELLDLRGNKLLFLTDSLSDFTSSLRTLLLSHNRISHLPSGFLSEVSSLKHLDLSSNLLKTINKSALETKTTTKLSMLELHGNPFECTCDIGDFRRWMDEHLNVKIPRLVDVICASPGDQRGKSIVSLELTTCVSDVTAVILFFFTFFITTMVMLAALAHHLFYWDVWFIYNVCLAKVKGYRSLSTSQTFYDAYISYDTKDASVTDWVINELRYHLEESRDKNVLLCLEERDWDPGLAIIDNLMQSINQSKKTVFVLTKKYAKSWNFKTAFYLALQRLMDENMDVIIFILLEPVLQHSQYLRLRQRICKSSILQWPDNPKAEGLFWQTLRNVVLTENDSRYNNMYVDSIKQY

Cytochrome P450 1A2 = target: T2, Cytochrome P450 1A2 (Homo sapiens, UniProt P05177); experiment: Inhibition of CYP1A2 (unknown origin); type: ADME
T2 sequence (P05177 whole entry): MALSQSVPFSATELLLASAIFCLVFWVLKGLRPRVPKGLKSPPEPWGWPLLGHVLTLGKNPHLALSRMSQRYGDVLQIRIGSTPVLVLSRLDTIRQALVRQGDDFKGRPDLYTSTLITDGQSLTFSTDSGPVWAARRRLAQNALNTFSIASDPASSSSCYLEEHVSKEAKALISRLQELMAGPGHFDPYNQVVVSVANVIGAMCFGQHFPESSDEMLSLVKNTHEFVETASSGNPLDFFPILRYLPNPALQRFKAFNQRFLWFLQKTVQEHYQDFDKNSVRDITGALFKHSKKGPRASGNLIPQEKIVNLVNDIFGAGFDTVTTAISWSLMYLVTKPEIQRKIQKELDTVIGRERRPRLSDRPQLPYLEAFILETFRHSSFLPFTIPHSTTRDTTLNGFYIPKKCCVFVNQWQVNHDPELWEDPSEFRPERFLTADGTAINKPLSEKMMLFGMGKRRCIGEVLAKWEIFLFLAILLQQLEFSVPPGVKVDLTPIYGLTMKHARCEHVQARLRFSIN

Mus musculus [3] = experiment: Induction of innate immune response in C57BL/6 mouse assessed as IFNalpha Cmax in liver at 5 mg/kg, po; type: functional, organism-based; set-up: dose 5 mg/kg
Mus musculus [4] = experiment: Induction of innate immune response in C57BL/6 mouse assessed as IP-10 Cmax in liver at 5 mg/kg, po; type: functional, organism-based; set-up: dose 5 mg/kg

Structure (SMILES): CCC[C@@H](CCO)Nc1nc(N)nc2c1CN(C(=O)c1csc(C)n1)CC2
- Tmax (Mus musculus [1]): 4 h
- MEC [2]: 3.4 µM
- IC50 (Cytochrome P450 1A2): > 10 µM
- Cmax (Mus musculus [3]): 0 pg/g
- Cmax (Mus musculus [4]): 75 pg/g
